Results taken from patent publication US20090155345A1, “METHODS FOR AFFECTING LIPOSOME COMPOSITION ULTRASOUND IRRADIATION” (BEN GURION UNIVERSITY OF THE NEGEV RESEARCH AND DEVELOPMENT …, priority 2005, published 2009).
Structures can show the parent of a compound that is named as a salt.

What was measured:
[1] = cited from earlier work
[2] = Chemical integrity of LFUS-irradiated drugs and lipids (HPLC, NMR, TLC); format: physicochemical; conditions: 20 kHz, 3.3 W/cm^2, 30 to 180 s; HPLC (doxorubicin, MPS), NMR (cisplatin)
Protocol: Thin layer gel chromatography (TLC) was used to determine if any chemical changes were induced in the liposome lipids by exposure to ultrasonic irradiation.
MPS concentration and chemical integrity were determined using HPLC (Hewlett Packard Liquid Chromatograph 1090). ChemStation software (Hewlett Packard) controlled all modules and was used for analysis of the chromatography data. The analytical column used was a C18 5-micron Econosphere, length 150 mm, inner diameter 4.6 mm (Alltech, Carnforth, UK). Sample injection volume was 20 μL. Eluent was monitored at a wavelength of 245 nm with a 10 nm bandwidth.
Experiments were performed on an INOVA 500-MHz spectrometer (Varian, Palo Alto, Calif.) using standard pulse sequences. The Pt chemical shifts were assigned relative to the external reference signal of K2PtCl4, set at −1,624 ppm.

| SMILES | pKa [1] | chemical changes of drug after LFUS [2] |
| --- | --- | --- |
| C[C@H]1C[C@@H]2[C@H]([C@@H](O)C[C@@]3(C)[C@H]2CC[C@]3(O)C(=O)COC(=O)CCC(=O)O)[C@@]2(C)C=CC(=O)C=C12 [MPS, Methylprednisolone hemisuccinate sodium salt] | 4.65 | – |
| N.N.[Cl][Pt][Cl] [cisplatin, Cisplatin] | – | does not induce any chemical changes |
| COc1cccc2c1C(=O)c1c(O)c3c(c(O)c1C2=O)C[C@@](O)(C(=O)CO)C[C@@H]3O[C@H]1C[C@H](N)[C@H](O)[C@H](C)O1 [doxorubicin, Doxorubicin-HCl] | – | does not induce any chemical changes |
